# In article PMC8330100, “Similarities and differences in the localization, trafficking, and function of P-glycoprotein in MDR1-EGFP-transduced rat versus human brain capillary endothelial cell lines” (Fluids and Barriers of the CNS, 2021):
# Tests used:
# [1] = test system: Pgp expression in RBE4 cells; assay: Western blot of Pgp expression, RBE4 cells; type: cell-based, rat
# Procedure: (§1) Piet Borst (The Netherlands Cancer Institute, Amsterdam, The Netherlands) as template. The linker sequence in the vector fusing EGFP and MDR1 consists of 36 bp ([…]). hCMEC/D3-WT, RBE4-WT, and hCMEC/D3-MDR1-EGFP cell lines were cultivated as previously described. The same culture conditions were used for the newly prepared RBE4-MDR1-EGFP cell line. As described previously, hydrocortisone (1.4 µM) was added to the culture medium to enhance the expression and functionality of Pgp and transendothelial resistance. All endothelial cell lines were grown on rat-tail collagen I (60 µg/mL, Gibco) coated 100 mm cultures dishes or permeable membrane supports at 37 °C and 5% CO2. Pgp-EGFP protein expression in MDR1-EGFP transduced cells was induced by cell cultivation in medium containing […] doxycycline. Expression of Pgp-EGFP was regularly verified by observing the cells with an inverted fluorescence microscope. Doxycycline supplementation of the medium was maintained during the whole culturing period of Pgp-EGFP expressing cells. For experiments, hCMEC/D3 and RBE4 cells were seeded in a density of 50,000 cells/cm^2. […]
# (§2) Pgp expression in immortalized cell lines, primary cells, and brain capillaries was evaluated by western blotting.
# [2] = test system: Pgp expression in hCMEC/D3 cells; assay: Western blot of Pgp expression, hCMEC/D3 cells; type: cell-based, human
# Procedure: as §1, §2
# Pgp in RBE4-WT cells = assay: Rhodamine 123 uptake/accumulation assay, RBE4-WT cells; type: cell-based, rat; conditions: tariquidar 0.5 µM
# Procedure: The functionality of Pgp in RBE4-WT, RBE4-MDR1-EGFP, hCMEC/D3-WT, hCMEC/D3-MDR1-EGFP cells, and primary rBCECs was analyzed by measuring the uptake of the fluorescent Pgp substrate Rho123 (Sigma-Aldrich). Cells were grown on 6-well plates and cultured for seven days in the presence or absence of doxycycline (1 µg/mL, Biochrom). […] Afterward, Rho123 (5 µM, dissolved in ethanol) was added and cells were incubated for another two hours. Rho123 transport was terminated by washing the cells twice with ice-cold PBS. Intracellular Rho123 concentration was determined by cell lysis in standard lysis buffer (25 mM Tris, 50 mM NaCl, 0.5% (w/v) sodium deoxycholate, 0.5% (w/v) Triton X-100) and measurement of fluorescence intensity with the FLUOstar OPTIMA (ex.: 485 nm, em.: 520 nm; BMG Labtech). Protein concentrations were determined using a BCA assay kit (Thermo Fisher Scientific). Rho123 uptake was obtained for each condition in triplicates and calculated as absolute fluorescence per mg protein. Additionally, Pgp functionality was expressed as multidrug resistance activity factor (MAF) as described by Huber et al.. This factor describes Pgp efflux activity based on differences in intracellular Rho123 accumulation in cells after Pgp inhibition compared to cells with active Pgp-mediated efflux. Thus, higher MAF values correlate with increased Pgp activity. For better comparison, differences in Rho123 accumulation are normalized to intracellular Rho123 levels in inhibitor-treated cells. MAF values for Pgp were calculated according to Huber et al. 2012 utilizing the following equation: MAF (%) = 100 · (MFITQ − MFI0)/(MFITQ) where MFITQ and MFI0 represent the mean fluorescence intensity of intracellular Rho123 in tariquidar (TQ)-treated and non-treated cells, respectively.
# [3] = molecular target: T1, Pgp in RBE4-MDR1-EGFP cells (Homo sapiens, UniProt P08183); assay: Rhodamine 123 uptake/accumulation assay, RBE4-MDR1-EGFP cells; type: cell-based, rat; conditions: RBE4-MDR1-EGFP in the presence of doxycycline; tariquidar 0.5 µM
# T1 construct: expressed in transfected cells; host or cells: RBE4 (rat BCEC line), lentiviral transduction, doxycycline-inducible
# T1 sequence (P08183 with tags, fused parts or gaps): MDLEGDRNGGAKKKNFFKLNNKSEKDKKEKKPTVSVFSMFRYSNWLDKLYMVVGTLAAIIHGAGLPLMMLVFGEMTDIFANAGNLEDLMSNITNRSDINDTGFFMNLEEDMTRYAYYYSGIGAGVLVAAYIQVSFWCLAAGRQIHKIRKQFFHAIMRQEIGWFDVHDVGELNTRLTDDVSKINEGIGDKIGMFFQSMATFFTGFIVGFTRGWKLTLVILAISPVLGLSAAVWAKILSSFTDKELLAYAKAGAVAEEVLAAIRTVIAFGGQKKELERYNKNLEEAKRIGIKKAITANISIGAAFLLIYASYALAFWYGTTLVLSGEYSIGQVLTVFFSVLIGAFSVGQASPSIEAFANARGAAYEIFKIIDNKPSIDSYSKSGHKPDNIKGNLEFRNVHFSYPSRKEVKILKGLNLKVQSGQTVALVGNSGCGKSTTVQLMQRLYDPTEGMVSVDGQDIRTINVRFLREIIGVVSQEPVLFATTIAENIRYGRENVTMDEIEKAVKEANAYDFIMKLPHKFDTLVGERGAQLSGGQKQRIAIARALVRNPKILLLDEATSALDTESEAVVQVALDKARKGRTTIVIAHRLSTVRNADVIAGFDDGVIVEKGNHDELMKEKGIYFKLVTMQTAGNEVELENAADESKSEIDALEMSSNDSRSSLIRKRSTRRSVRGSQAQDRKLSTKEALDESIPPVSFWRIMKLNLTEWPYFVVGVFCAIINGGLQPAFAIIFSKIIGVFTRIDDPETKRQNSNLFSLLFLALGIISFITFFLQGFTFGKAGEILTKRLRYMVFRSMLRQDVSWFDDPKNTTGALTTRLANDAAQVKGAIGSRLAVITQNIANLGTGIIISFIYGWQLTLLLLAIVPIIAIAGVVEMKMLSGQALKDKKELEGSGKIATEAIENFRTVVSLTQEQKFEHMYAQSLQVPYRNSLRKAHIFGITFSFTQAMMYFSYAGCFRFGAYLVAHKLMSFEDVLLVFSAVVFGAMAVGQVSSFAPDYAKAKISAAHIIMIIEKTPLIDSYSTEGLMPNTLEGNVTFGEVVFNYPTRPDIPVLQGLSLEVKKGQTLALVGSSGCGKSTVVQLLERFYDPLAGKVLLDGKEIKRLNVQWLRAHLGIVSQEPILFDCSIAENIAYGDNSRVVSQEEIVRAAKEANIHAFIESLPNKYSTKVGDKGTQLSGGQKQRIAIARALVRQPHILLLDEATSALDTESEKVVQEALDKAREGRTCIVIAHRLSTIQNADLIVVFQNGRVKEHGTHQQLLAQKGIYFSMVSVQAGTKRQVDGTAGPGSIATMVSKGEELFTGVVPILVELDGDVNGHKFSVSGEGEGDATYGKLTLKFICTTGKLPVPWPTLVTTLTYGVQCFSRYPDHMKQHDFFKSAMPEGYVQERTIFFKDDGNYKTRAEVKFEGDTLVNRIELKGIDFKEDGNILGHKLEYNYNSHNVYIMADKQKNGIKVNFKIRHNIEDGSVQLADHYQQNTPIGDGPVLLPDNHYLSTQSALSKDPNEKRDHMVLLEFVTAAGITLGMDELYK
# Procedure: as §1, with “cells/cm^2. Immortalized MDR1 transfected porcine kidney LLC-PK1 (LLC-MDR1) cells, which were used as a reference standard for vectorial transport experiments, were kindly provided by Prof. Piet Borst.” for “cells/cm^2.”
# Pgp in hCMEC/D3-WT cells = molecular target: T2, Pgp in hCMEC/D3-WT cells (Homo sapiens, UniProt P08183); assay: Rhodamine 123 uptake/accumulation assay, hCMEC/D3-WT cells; type: cell-based; conditions: tariquidar 0.5 µM
# T2 construct: endogenous in cells; host or cells: hCMEC/D3-WT
# T2 sequence (P08183 whole entry): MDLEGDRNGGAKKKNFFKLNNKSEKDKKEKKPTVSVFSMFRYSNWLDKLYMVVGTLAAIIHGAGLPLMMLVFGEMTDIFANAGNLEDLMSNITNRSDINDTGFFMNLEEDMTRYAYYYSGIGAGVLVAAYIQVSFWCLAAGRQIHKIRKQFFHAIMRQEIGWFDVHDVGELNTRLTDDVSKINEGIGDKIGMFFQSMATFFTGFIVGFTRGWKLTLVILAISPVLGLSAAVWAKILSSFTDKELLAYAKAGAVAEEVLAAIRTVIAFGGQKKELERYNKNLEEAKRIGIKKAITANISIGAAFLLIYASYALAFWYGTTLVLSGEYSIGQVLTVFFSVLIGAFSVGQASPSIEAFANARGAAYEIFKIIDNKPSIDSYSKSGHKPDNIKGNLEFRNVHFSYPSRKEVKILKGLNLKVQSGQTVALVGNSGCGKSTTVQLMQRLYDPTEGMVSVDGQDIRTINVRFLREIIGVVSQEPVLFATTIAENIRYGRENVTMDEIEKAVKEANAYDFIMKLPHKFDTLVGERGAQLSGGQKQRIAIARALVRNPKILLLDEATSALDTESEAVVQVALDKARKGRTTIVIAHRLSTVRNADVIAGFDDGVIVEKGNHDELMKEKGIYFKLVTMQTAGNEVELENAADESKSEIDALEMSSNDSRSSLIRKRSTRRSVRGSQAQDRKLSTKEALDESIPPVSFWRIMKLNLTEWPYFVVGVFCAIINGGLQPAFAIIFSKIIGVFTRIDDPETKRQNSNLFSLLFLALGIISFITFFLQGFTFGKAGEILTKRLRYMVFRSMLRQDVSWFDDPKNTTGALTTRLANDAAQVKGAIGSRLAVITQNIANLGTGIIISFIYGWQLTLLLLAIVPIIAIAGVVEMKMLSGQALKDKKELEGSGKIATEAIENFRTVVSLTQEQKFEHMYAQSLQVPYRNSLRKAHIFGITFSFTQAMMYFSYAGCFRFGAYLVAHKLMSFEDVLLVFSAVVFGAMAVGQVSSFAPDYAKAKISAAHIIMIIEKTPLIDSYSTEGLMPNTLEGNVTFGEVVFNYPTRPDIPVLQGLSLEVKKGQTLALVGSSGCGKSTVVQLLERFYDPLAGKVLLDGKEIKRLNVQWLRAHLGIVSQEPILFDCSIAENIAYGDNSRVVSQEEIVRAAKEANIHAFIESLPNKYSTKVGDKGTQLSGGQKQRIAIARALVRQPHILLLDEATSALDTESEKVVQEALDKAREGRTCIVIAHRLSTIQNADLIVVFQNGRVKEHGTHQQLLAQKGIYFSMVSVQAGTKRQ
# Procedure: The functionality of Pgp in RBE4-WT, RBE4-MDR1-EGFP, hCMEC/D3-WT, hCMEC/D3-MDR1-EGFP cells, and primary rBCECs was analyzed by measuring the uptake of the fluorescent Pgp substrate Rho123 (Sigma-Aldrich). Cells were grown on 6-well plates and cultured for seven days in the presence or absence of doxycycline (1 µg/mL, Biochrom). […] Afterward, Rho123 (5 µM, dissolved in ethanol) was added and cells were incubated for another two hours. Rho123 transport was terminated by washing the cells twice with ice-cold PBS. […] Rho123 uptake was obtained for each condition in triplicates and calculated as absolute fluorescence per mg protein. Additionally, Pgp functionality was expressed as multidrug resistance activity factor (MAF) as described by Huber et al. [40]. This factor describes Pgp efflux activity based on differences in intracellular Rho123 accumulation in cells after Pgp inhibition compared to cells with active Pgp-mediated efflux. Thus, higher MAF values correlate with increased Pgp activity. […] MAF values for Pgp were calculated according to Huber et al. 2012 utilizing the following equation: MAF (%) = 100 · (MFITQ − MFI0)/(MFITQ) where MFITQ and MFI0 represent the mean fluorescence intensity of intracellular Rho123 in tariquidar (TQ)-treated and non-treated cells, respectively.
# Pgp in primary rBCECs = assay: Rhodamine 123 uptake/accumulation assay, primary rBCECs; type: cell-based, rat; conditions: tariquidar 0.5 µM, P < 0.0001
# Source text: The RBE4 and hCMEC/D3 cell lines used here are immortalized, which has the advantage that these cells are stable for several passages and may yield a large number of endothelial cells with the same genetic and phenotypical characteristics. The immortalization status, however, causes several alterations as compared to the native original cell type, including low junctional tightness of cell monolayers and reduced expression of efflux transporters such as Pgp. Therefore, for comparison with the MDR1-EGFP transduced rat RBE4 cells, experiments were also performed with primary cultured rat brain capillary endothelial cells (rBCECs). As described by us previously, rBCECs were prepared following a protocol by Régina et al. and Perrière et al. from 2 to 3 weeks old Wistar rats (obtained from Charles River; Sulzfeld, Germany). All animals were treated according to protocols evaluated and approved by the ethical committee of our university. In short, meninges were removed from cerebral cortices in phosphate-buffered saline (PBS) with 1% penicillin (100 U/mL)/streptomycin (100 μg/mL) (Biochrom AG) on ice. Subsequently, cortices were mechanically dissociated with scalpels. […]
# The functionality of Pgp in RBE4-WT, RBE4-MDR1-EGFP, hCMEC/D3-WT, hCMEC/D3-MDR1-EGFP cells, and primary rBCECs was analyzed by measuring the uptake of the fluorescent Pgp substrate Rho123 (Sigma-Aldrich). […] Intracellular Rho123 concentration was determined by cell lysis in standard lysis buffer (25 mM Tris, 50 mM NaCl, 0.5% (w/v) sodium deoxycholate, 0.5% (w/v) Triton X-100) and measurement of fluorescence intensity with the FLUOstar OPTIMA (ex.: 485 nm, em.: 520 nm; BMG Labtech). Protein concentrations were determined using a BCA assay kit (Thermo Fisher Scientific). Rho123 uptake was obtained for each condition in triplicates and calculated as absolute fluorescence per mg protein. Additionally, Pgp functionality was expressed as multidrug resistance activity factor (MAF) as described by Huber et al.. […]
Compound,"increase of Pgp expression in comparison to WT cells ([1]; RBE4-MDR1-EGFP in the presence of dox, normalized to β-actin)",effect on Pgp expression in WT cells ([1]; RBE4-WT),"increase of Pgp expression in comparison to WT cells ([2]; hCMEC/D3-MDR1-EGFP in the presence of dox, normalized to β-actin)",effect on Pgp expression in WT cells ([2]; hCMEC/D3-WT),effect of Pgp inhibitor on accumulation of Rho123 (Pgp in RBE4-WT cells),effect of Pgp inhibitor on increased Pgp-mediated Rho123 efflux [3],effect of Pgp inhibitor on accumulation of Rho123 (Pgp in hCMEC/D3-WT cells),effect of Pgp inhibitor in Rho123 uptake assay (Pgp in primary rBCECs)
"C[C@H]1c2cccc(O)c2C(=O)C2=C(O)[C@]3(O)C(=O)C(C(N)=O)=C(O)[C@@H](N(C)C)[C@@H]3[C@@H](O)[C@@H]21 [dox, doxycycline]",9 fold,did not affect,sevenfold,did not affect,–,–,–,–
COc1cc2c(cc1OC)CN(CCc1ccc(NC(=O)c3cc(OC)c(OC)cc3NC(=O)c3cnc4ccccc4c3)cc1)CC2 [tariquidar],–,–,–,–,significantly increased,could be inhibited,significantly increased,significant effect
